Measurements as given in patent US20260262643A1, “HERBICIDAL BENZOXAZINES” (FMC CORPORATION, priority 2022, published 2026).

How the values were obtained:
soybean [1] = test: Test A preemergence; type: in vivo, Glycine max
Procedure, shortened: (§1)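 Loam/sand soil; pre-em directed soil spray at planting, post-em spray at 1–2 leaf (2–10 cm). Compound in non-phytotoxic solvent + surfactant. Greenhouse 10 d; visual injury vs untreated, 0 = no effect, 100 = complete control.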

horseweed = test: Test A postemergence; type: in vivo, Erigeron canadensis
Procedure, shortened: as §1

pigweed, palmer [2] = test: Test A preemergence; type: in vivo, Amaranthus palmeri
Procedure, shortened: as §1

ragweed [3] = test: Test A preemergence; type: in vivo, Ambrosia artemisiifolia
Procedure, shortened: as §1

kochia [4] = test: Test A postemergence; type: in vivo, Bassia scoparia
Procedure, shortened: as §1

goosegrass [5] = test: Test A preemergence; type: in vivo, Eleusine indica
Procedure, shortened: as §1

soybean [6] = test: Test A postemergence; type: in vivo, Glycine max
Procedure, shortened: as §1

corn [7] = test: Test A preemergence; type: in vivo, Zea mays
Procedure, shortened: as §1

oat, wild [8] = test: Test A postemergence; type: in vivo, Avena fatua
Procedure, shortened: as §1

pigweed, palmer [9] = test: Test A postemergence; type: in vivo, Amaranthus palmeri
Procedure, shortened: as §1

oat, wild [10] = test: Test A preemergence; type: in vivo, Avena fatua
Procedure, shortened: as §1

barnyardgrass = test: Test B flooded paddy test; type: in vivo, Echinochloa crus-galli; conditions: 250 g ai/ha, Flood, 13 days, 0 to 100 scale (0 no effect, 100 complete control)
Procedure, shortened: (§2)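 Plants at the 2-leaf stage were flooded to 3 cm above the soil, and test compounds were applied directly into the paddy water, with that depth held throughout. After 13 days in a greenhouse, injury was rated visually against untreated controls on a 0–100 scale (100 = complete control).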

kochia [11] = test: Test A preemergence; type: in vivo, Bassia scoparia
Procedure, shortened: as §1

blackgrass [12] = test: Test A postemergence; type: in vivo, Alopecurus myosuroides
Procedure, shortened: as §1

wheat [13] = test: Test A preemergence; type: in vivo, Triticum aestivum
Procedure, shortened: as §1

blackgrass [14] = test: Test A preemergence; type: in vivo, Alopecurus myosuroides
Procedure, shortened: as §1

ragweed [15] = test: Test A postemergence; type: in vivo, Ambrosia artemisiifolia
Procedure, shortened: as §1

foxtail, giant [16] = test: Test A postemergence; type: in vivo, Setaria faberi
Procedure, shortened: as §1

ryegrass, Italian [17] = test: Test A postemergence; type: in vivo, Lolium multiflorum
Procedure, shortened: as §1

corn [18] = test: Test A postemergence; type: in vivo, Zea mays
Procedure, shortened: as §1

goosegrass [19] = test: Test A postemergence; type: in vivo, Eleusine indica
Procedure, shortened: as §1

wheat [20] = test: Test A postemergence; type: in vivo, Triticum aestivum
Procedure, shortened: as §1

sedge, umbrella = test: Test B flooded paddy test; type: in vivo, Cyperus difformis; conditions: 250 g ai/ha, Flood, 13 days, 0 to 100 scale (0 no effect, 100 complete control)
Procedure, shortened: as §2

rice = test: Test B flooded paddy test; type: in vivo, Oryza sativa; conditions: 250 g ai/ha, Flood, 13 days, 0 to 100 scale (0 no effect, 100 complete control)
Procedure, shortened: as §2

galium = test: Test A postemergence; type: in vivo, Galium aparine
Procedure, shortened: as §1

foxtail, giant [21] = test: Test A preemergence; type: in vivo, Setaria faberi
Procedure, shortened: as §1

ducksalad = test: Test B flooded paddy test; type: in vivo, Heteranthera limosa; conditions: 250 g ai/ha, Flood, 13 days, 0 to 100 scale (0 no effect, 100 complete control)
Procedure, shortened: as §2

ryegrass, Italian [22] = test: Test A preemergence; type: in vivo, Lolium multiflorum
Procedure, shortened: as §1

[23] = 125 g ai/ha, visual injury after 10 days, 0 to 100 scale, 0 is no effect, 100 is complete control
[24] = 500 g ai/ha, 0 to 100 scale (0 no effect, 100 complete control), 10 days
[25] = 125 g ai/ha, postemergence, 10 days, 0 to 100 scale, 0 no effect, 100 complete control
[26] = 500 g ai/ha, postemergence, 10 days, visual injury, 0 to 100 scale (0 no effect, 100 complete control)
[27] = 125 g ai/ha, postemergence, 10 days, visual injury, 0 to 100 scale (0 no effect, 100 complete control)
[28] = 500 g ai/ha, Postemergence, 0 to 100 scale

CCc1ncn(-c2cccc(C(=O)N3C[C@H](C)Oc4c(Cl)cccc43)c2)n1 [Compound 91]
25: Plant response rating, Barnyardgrass (barnyardgrass)
70: Plant response rating, Soybean (soybean [1]; [24]) | Pigweed, Palmer plant response rating (pigweed, palmer [9]; [25]) | Plant response rating, Ragweed (ragweed [15]; [26])
30: Plant response rating, Ragweed (ragweed [3]; [24]) | Plant response rating, Corn (corn [7]; [23]) | Ragweed plant response rating (ragweed [15]; [25]) | Wheat plant response rating (wheat [20]; [25])
60: Plant response rating, Corn (corn [7]; [24]) | Corn plant response rating (corn [18]; [25])
90: Plant response rating, Pigweed, Palmer (pigweed, palmer [2]; [23]) | Plant response rating, Oat, Wild (oat, wild [8]; [26]) | Plant response rating, Pigweed, Palmer (pigweed, palmer [9]; [26]) | Plant response rating, Oat, Wild (oat, wild [10]; [24]) | Plant response rating, Kochia (kochia [11]; [23]) | Blackgrass plant response rating (blackgrass [12]; [25]) | Plant response rating, Blackgrass (blackgrass [14]; [24]) | Plant response rating, Foxtail, Giant (foxtail, giant [16]; [26]) | Plant response rating, Goosegrass (goosegrass [19]; [26]) | Plant response rating, Foxtail, Giant (foxtail, giant [21]; [23]) | Plant response rating, Ducksalad (ducksalad) | Plant response rating, Ryegrass, Italian (ryegrass, Italian [22]; [23])
35: Plant response rating, Sedge, Umbrella (sedge, umbrella)
100: Plant response rating, Pigweed, Palmer (pigweed, palmer [2]; [24]) | Plant response rating, Kochia (kochia [4]; [26]) | Plant response rating, Goosegrass (goosegrass [5]; [23]) | Plant response rating, Goosegrass (goosegrass [5]; [24]) | Soybean plant response rating (soybean [6]; [25]) | Plant response rating, Soybean (soybean [6]; [26]) | Plant response rating, Kochia (kochia [11]; [24]) | Plant response rating, Blackgrass (blackgrass [12]; [26]) | Plant response rating, Ryegrass, Italian (ryegrass, Italian [17]; [26]) | Galium plant response rating (galium; [25]) | Plant response rating, Galium (galium; [26]) | Plant response rating, Foxtail, Giant (foxtail, giant [21]; [24]) | Plant response rating, Ryegrass, Italian (ryegrass, Italian [22]; [24])
10: Plant response rating, Oat, Wild (oat, wild [10]; [23])
50: Oat, Wild plant response rating (oat, wild [8]; [25])
20: Plant response rating, Soybean (soybean [1]; [23]) | Plant response rating, Horseweed (horseweed; [26]) | Plant response rating, Wheat (wheat [13]; [24])
80: Kochia plant response rating (kochia [4]; [25]) | Plant response rating, Blackgrass (blackgrass [14]; [23]) | Foxtail, Giant plant response rating (foxtail, giant [16]; [25]) | Ryegrass, Italian plant response rating (ryegrass, Italian [17]; [25]) | Plant response rating, Corn (corn [18]; [26]) | Goosegrass plant response rating (goosegrass [19]; [25]) | Plant response rating, Wheat (wheat [20]; [26])
0: Horseweed plant response rating (horseweed; [25]) | Plant response rating, Ragweed (ragweed [3]; [23]) | Plant response rating, Wheat (wheat [13]; [23]) | Plant response rating, Rice (rice)

Cc1cccc2c1O[C@@H](C)CN2C(=O)c1cc(-n2cncn2)ccc1F [Compound 50]
80: Plant response rating, Blackgrass (blackgrass [14]; [24]) | Plant response rating, Ryegrass, Italian (ryegrass, Italian [17]; [28]) | Plant response rating, Ryegrass, Italian (ryegrass, Italian [22]; [23])
0: Plant response rating, Horseweed (horseweed; [27]) | Plant response rating, Pigweed, Palmer (pigweed, palmer [2]; [23]) | Plant response rating, Ragweed (ragweed [3]; [23]) | Plant response rating, Corn (corn [7]; [23]) | Plant response rating, Corn (corn [7]; [24]) | Plant response rating, Barnyardgrass (barnyardgrass) | Plant response rating, Kochia (kochia [11]; [23]) | Plant response rating, Wheat (wheat [13]; [23]) | Plant response rating, Sedge, Umbrella (sedge, umbrella) | Plant response rating, Rice (rice) | Plant response rating, Ducksalad (ducksalad)
10: Plant response rating, Horseweed (horseweed; [28]) | Plant response rating, Kochia (kochia [4]; [27]) | Plant response rating, Kochia (kochia [11]; [24])
30: Plant response rating, Soybean (soybean [1]; [23]) | Plant response rating, Ragweed (ragweed [3]; [24]) | Plant response rating, Pigweed, Palmer (pigweed, palmer [9]; [27]) | Plant response rating, Pigweed, Palmer (pigweed, palmer [9]; [28]) | Plant response rating, Corn (corn [18]; [27])
70: Plant response rating, Kochia (kochia [4]; [28]) | Plant response rating, Blackgrass (blackgrass [12]; [28]) | Plant response rating, Foxtail, Giant (foxtail, giant [16]; [27]) | Plant response rating, Wheat (wheat [20]; [28])
90: Plant response rating, Soybean (soybean [1]; [24]) | Plant response rating, Goosegrass (goosegrass [5]; [23]) | Plant response rating, Oat, Wild (oat, wild [10]; [24]) | Plant response rating, Foxtail, Giant (foxtail, giant [16]; [28]) | Plant response rating, Goosegrass (goosegrass [19]; [28]) | Plant response rating, Foxtail, Giant (foxtail, giant [21]; [23]) | Plant response rating, Ryegrass, Italian (ryegrass, Italian [22]; [24])
40: Plant response rating, Blackgrass (blackgrass [14]; [23]) | Plant response rating, Ragweed (ragweed [15]; [28]) | Plant response rating, Wheat (wheat [20]; [27])
100: Plant response rating, Pigweed, Palmer (pigweed, palmer [2]; [24]) | Plant response rating, Goosegrass (goosegrass [5]; [24]) | Plant response rating, Soybean (soybean [6]; [27]) | Plant response rating, Soybean (soybean [6]; [28]) | Plant response rating, Galium (galium; [28]) | Plant response rating, Foxtail, Giant (foxtail, giant [21]; [24])
60: Plant response rating, Corn (corn [18]; [28]) | Plant response rating, Galium (galium; [27])
50: Plant response rating, Oat, Wild (oat, wild [8]; [28]) | Plant response rating, Blackgrass (blackgrass [12]; [27]) | Plant response rating, Wheat (wheat [13]; [24]) | Plant response rating, Ryegrass, Italian (ryegrass, Italian [17]; [27]) | Plant response rating, Goosegrass (goosegrass [19]; [27])
20: Plant response rating, Oat, Wild (oat, wild [8]; [27]) | Plant response rating, Oat, Wild (oat, wild [10]; [23]) | Plant response rating, Ragweed (ragweed [15]; [27])
